A word on the IC50: it is the midpoint of a concentration-inhibition curve.

Molecules are shown by their SMILES. Like-named read-outs stand apart in the source and are kept apart here.

IC50 data for 19 molecules are collected here from patent US20140228377A1, “METHYLPIPERIDINE DERIVATIVE” (TAISHO PHARMACEUTICAL CO., LTD., priority 2011, published 2014).

In assay [1] the target is T1, orexin-2 receptor (hOX2R) (Homo sapiens, UniProt O43614).
T1 construct: expressed in transfected cells; host or cells: Chinese hamster ovary (CHO) cells
T1 sequence (O43614 1-444): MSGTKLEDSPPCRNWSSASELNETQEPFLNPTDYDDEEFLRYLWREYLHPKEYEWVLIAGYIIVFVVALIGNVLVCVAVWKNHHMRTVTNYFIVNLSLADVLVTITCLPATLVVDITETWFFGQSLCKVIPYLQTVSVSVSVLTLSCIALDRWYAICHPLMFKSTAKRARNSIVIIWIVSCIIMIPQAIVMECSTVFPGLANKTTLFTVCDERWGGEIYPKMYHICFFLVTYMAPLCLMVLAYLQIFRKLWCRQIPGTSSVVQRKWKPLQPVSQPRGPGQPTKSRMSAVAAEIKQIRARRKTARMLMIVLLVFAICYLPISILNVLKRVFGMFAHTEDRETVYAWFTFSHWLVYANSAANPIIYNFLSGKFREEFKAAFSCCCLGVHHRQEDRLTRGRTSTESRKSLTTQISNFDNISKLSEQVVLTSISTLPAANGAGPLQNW
Briefly: Orexin antagonistic activity assay (intracellular Ca2+, FDSS) in CHO cells expressing hOX2R. It is filed as cell-based. Here is the method:
(§1) The antagonistic activity of each test compound against human orexin-1 receptor (hOX1R) and orexin-2 receptor (hOX2R) was assayed by a modification of a method described in the literature (Toshikatsu Okumura et al., Biochemical and Biophysical Research Communications 280, 976-981, 2001). Chinese hamster ovary (CHO) cells forced to express hOX1R or hOX2R were inoculated at a density of 20,000 cells/well to a 96-well Black clear bottom plate (Nunc) and cultured at 37° C. for 16 hours under 5% CO2 conditions in a Ham's F-12 medium containing 0.1 mM MEM nonessential amino acids, 0.5 mg/ml G418, and 10% fetal bovine serum (all from Invitrogen Corp.). After removal of the medium, 100 μL of a buffer solution for assay (25 mM HEPES (Dojindo Laboratories), Hanks' balanced salt solution (Invitrogen Corp.), 0.1% bovine serum albumin, 2.5 mM probenecid, and 200 μg/ml Amaranth (all from Sigma-Aldrich Corp.), pH 7.4) containing 0.5 μM Fluo-3 AM ester (Dojindo Laboratories) was added to the cells, which were then incubated at 37° C. for 60 minutes under 5% CO2 conditions. After removal of the buffer solution for assay containing Fluo-3 AM ester, each test compound was dissolved at a concentration of 10 mM in dimethyl sulfoxide and diluted with a buffer solution for assay. Then, 150 μL of the solution was added to the cells, which were then incubated for 30 minutes.
(§2) A ligand peptide (Pyr-[…]NH2; Peptide Institute, Inc.) derived from human orexin-A by the substitution of two amino acids was diluted with a buffer solution for assay to final concentrations of 300 pM for hOX1R and 3 nM for hOX2R. Reaction was initiated by the addition of 50 μL of this ligand solution. The fluorescence intensity of the reaction was measured in each well every second for 3 minutes using Functional Drug Screening System (FDSS; manufactured by Hamamatsu Photonics K.K.), and the maximum fluorescence intensity was used as an index for intracellular Ca^2+ concentration to determine antagonistic activity. The antagonistic activity of the test compound was calculated with fluorescence intensity from a well supplemented with only a diluting buffer solution as 100% and fluorescence intensity from a well supplemented with a buffer solution free from the ligand and the compound as 0%. The 50% inhibitory concentration (IC50 value) was determined on the basis of fluorescence intensity derived from the test compound added at varying concentrations.

For assay [2], the target named is T2, human orexin-1 receptor (hOX1R) (Homo sapiens, UniProt O43613).
T2 construct: expressed in transfected cells; host or cells: Chinese hamster ovary (CHO) cells
T2 sequence (O43613 1-425): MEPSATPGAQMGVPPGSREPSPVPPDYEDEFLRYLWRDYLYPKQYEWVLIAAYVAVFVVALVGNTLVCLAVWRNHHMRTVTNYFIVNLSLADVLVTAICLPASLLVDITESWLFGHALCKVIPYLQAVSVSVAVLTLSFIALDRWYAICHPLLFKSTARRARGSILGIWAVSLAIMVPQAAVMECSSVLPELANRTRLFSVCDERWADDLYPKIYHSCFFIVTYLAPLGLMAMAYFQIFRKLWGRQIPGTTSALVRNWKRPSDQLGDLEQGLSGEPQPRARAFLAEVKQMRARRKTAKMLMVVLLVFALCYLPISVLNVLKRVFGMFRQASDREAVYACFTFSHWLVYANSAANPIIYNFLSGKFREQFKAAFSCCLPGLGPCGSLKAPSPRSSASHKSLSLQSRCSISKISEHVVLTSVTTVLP
As to the kind of experiment: Orexin antagonistic activity assay (intracellular Ca2+, FDSS) in CHO cells expressing hOX1R. It is filed as cell-based. Here is the method:
as §1, §2

Setting [3] is: CHO cells expressing hOX2R, ligand peptide 3 nM, Fluo-3 maximum fluorescence intensity, read-out: IC50 value OX2.
Setting [4] is: CHO cells expressing hOX1R, ligand peptide 300 pM, Fluo-3 maximum fluorescence intensity, read-out: IC50 value OX1.

For `Cc1ccc(-n2nccn2)c(C(=O)N2C[C@H](c3nc4cc(C(F)(F)F)ccc4o3)CC[C@H]2C)n1` [Example 40, [6-Methyl-3-(2H-1,2,3-triazol-2-yl)pyridin-2-yl]{(2R,5R)-2-methyl-5-[5-(trifluoromethyl)-1,3-benzoxazol-2-yl]piperidin-1-yl}methanone], the IC50 amounted to 100 nM in assay [1] (setting [3]) and 157 nM in assay [2] (setting [4]).
Consider `C[C@@H]1CC[C@@H](c2nc3cc(Cl)ccc3o2)CN1C(=O)c1cc(C(F)(F)F)ccc1-n1nccn1` [Example 20, [(2R,5R)-5-(5-Chloro-1,3-benzoxazol-2-yl)-2-methylpiperidin-1-yl][2-(2H-1,2,3-triazol-2-yl)-5-(trifluoromethyl)phenyl]methanone], for which the IC50 in assay [1] (setting [3]) is 55.7 nM; in assay [2] (setting [4]) it was 108 nM.
Taken in the same sequence, the figures for `C[C@@H]1CC[C@@H](c2nc3ccc(Cl)cc3o2)CN1C(=O)c1ccc(F)cc1-n1nccn1` [Example 47, [(2R,5R)-5-(6-Chloro-1,3-benzoxazol-2-yl)-2-methylpiperidin-1-yl][4-fluoro-2-(2H-1,2,3-triazol-2-yl)phenyl]methanone] were 16.6 nM and 58.6 nM.
`Cc1ccc(-n2nccn2)c(C(=O)N2C[C@H](c3nc4ccc(F)c(F)c4o3)CC[C@H]2C)c1` [Example 58, [(2R,5R)-5-(6,7-Difluoro-1,3-benzoxazol-2-yl)-2-methylpiperidin-1-yl][5-methyl-2-(2H-1,2,3-triazol-2-yl)phenyl]methanone]: the concentration for half-maximal inhibition (IC50) in assay [1] (setting [3]) was determined as 9.4 nM; in assay [2] (setting [4]), 9.3 nM.
In the case of `C[C@@H]1CC[C@@H](c2nc3cc(Cl)ccc3o2)CN1C(=O)c1cc(C#N)ccc1-n1nccn1` [Example 21], the results for the IC50 in assay [1] (setting [3]) and in assay [2] (setting [4]) were 155 nM and 211 nM, respectively.
Take `Cc1ccc(-n2nccn2)c(C(=O)N2C[C@H](c3nc4cccc(F)c4o3)CC[C@H]2C)c1` [Example 65, [(2R,5R)-5-(7-Fluoro-1,3-benzoxazol-2-yl)-2-methylpiperidin-1-yl][5-methyl-2-(2H-1,2,3-triazol-2-yl)phenyl]methanone]: the IC50 in assay [1] (setting [3]) came to 6.6 nM; in assay [2] (setting [4]) it was 8.6 nM.
For the molecule `C[C@@H]1CC[C@@H](c2nc3cc(Cl)ccc3o2)CN1C(=O)c1c(F)cccc1-n1nccn1` [Example 16, [(2R5R)-5-(5-Chloro-1,3-benzoxazol-2-yl)-2-methylpiperidin-1-yl][2-fluoro-6-(2H-1,2,3-triazol-2-yl)phenyl]methanone], the figures for the IC50 in assay [1] (setting [3]) and in assay [2] (setting [4]) were 3.6 nM and 25.6 nM, respectively.
The like results for `Cc1ccc(-c2ncccn2)c(C(=O)N2C[C@H](c3nc4cc(F)cc(F)c4o3)CC[C@H]2C)c1` [Example 63, [(2R,5R)-5-(5,7-Difluoro-1,3-benzoxazol-2-yl)-2-methylpiperidin-1-yl][5-methyl-2-(pyrimidin-2-yl)phenyl]methanone] were, in that order, 5.5 nM and 29.1 nM.
Turning to `C[C@@H]1CC[C@@H](c2nc3cc(Cl)ccc3o2)CN1C(=O)c1cc(Cl)ccc1-c1ncccn1` [Example 13, [(2R,5R)-5-(5-Chloro-1,3-benzoxazol-2-yl)-2-methylpiperidin-1-yl][5-chloro-2-(pyrimidin-2-yl)phenyl]methanone], the results for the IC50 in assay [1] (setting [3]) and in assay [2] (setting [4]) were 13 nM and 4.4 nM, respectively.
`C[C@@H]1CC[C@@H](c2nc3cc(F)ccc3o2)CN1C(=O)c1cc(Cl)ccc1-n1nccn1` [Example 30, [5-Chloro-2-(2H-1,2,3-triazol-2-yl)phenyl][(2R,5R)-5-(5-fluoro-1,3-benzoxazol-2-yl)-2-methylpiperidin-1-yl]methanone]: the IC50 turned out to be 3.7 nM in assay [1] (setting [3]) and 74.4 nM in assay [2] (setting [4]).
As to `C[C@@H]1CC[C@@H](c2nc3cc(F)c(F)cc3o2)CN1C(=O)c1ccc(F)cc1-n1nccn1` [Example 55, [(2R,5R)-5-(5,6-Difluoro-1,3-benzoxazol-2-yl)-2-methylpiperidin-1-yl][4-fluoro-2-(2H-1,2,3-triazol-2-yl)phenyl]methanone], the figures for the IC50 in assay [1] (setting [3]) and in assay [2] (setting [4]) were 9.4 nM and 207 nM, respectively.
On to `Cc1ccc(-n2nccn2)c(C(=O)N2C[C@H](c3nc4ccc(Cl)cc4o3)CC[C@H]2C)c1` [Example 43, [(2R,5R)-5-(6-Chloro-1,3-benzoxazol-2-yl)-2-methylpiperidin-1-yl][5-methyl-2-(2H-1,2,3-triazol-2-yl)phenyl]methanone], for which the IC50 in assay [1] (setting [3]) stood at 9.8 nM; in assay [2] (setting [4]), 4.1 nM.
On to `C[C@@H]1CC[C@@H](c2nc3cc(Cl)ccc3o2)CN1C(=O)c1ccccc1-c1ncccn1` (single isomer, unassigned) [Example 7, [(2R*,5R*)-5-(5-Chloro-1,3-benzoxazol-2-yl)-2-methylpiperidin-1-yl][2-(pyrimidin-2-yl)phenyl]methanone], for which the figures for the IC50 in assay [1] (setting [3]) and in assay [2] (setting [4]) were 2 nM and 49.5 nM, respectively.
Take `Cc1ccc(-c2ncccn2)c(C(=O)N2C[C@H](c3nc4cc(C(F)(F)F)ccc4o3)CC[C@H]2C)c1` [Example 37, [5-Methyl-2-(pyrimidin-2-yl)phenyl]{(2R,5R)-2-methyl-5-[5-(trifluoromethyl)-1,3-benzoxazol-2-yl]piperidin-1-yl}methanone]: the values for the IC50 in assay [1] (setting [3]) and in assay [2] (setting [4]) were 9.3 nM and 36.5 nM, respectively.
As for `Cc1ccc(-n2nccn2)c(C(=O)N2C[C@H](c3nc4cc(Cl)ccc4o3)CC[C@H]2C)c1` (single isomer, unassigned) [Example 9, [(2R*,5R*)-5-(5-Chloro-1,3-benzoxazol-2-yl)-2-methylpiperidin-1-yl][5-methyl-2-(2H-1,2,3-triazol-2-yl)phenyl]methanone], the results for the IC50 in assay [1] and in assay [2] were 1.8 nM and 1.2 nM, respectively.
As to `C[C@@H]1CC[C@@H](c2nc3cc(Cl)ccc3o2)CN1C(=O)c1cc(Br)ccc1-n1nccn1` [Example 22, [5-Bromo-2-(2H-1,2,3-triazol-2-yl)phenyyl][(2R,5R)-5-(5-chloro-1,3-benzoxazol-2-yl)-2-methylpiperidin-1-yl]methanone], the values for the IC50 in assay [1] (setting [3]) and in assay [2] (setting [4]) were 7.8 nM and 31.9 nM, respectively.
With `C[C@@H]1CC[C@@H](c2nc3cc(F)ccc3o2)CN1C(=O)c1cc(F)ccc1-n1nccn1` [Example 29, [(2R,5R)-5-(5-Fluoro-1,3-benzoxazol-2-yl)-2-methylpiperidin-1-yl][5-fluoro-2-(2H-1,2,3-triazol-2-yl)phenyl]methanone], the IC50 turned out to be 6 nM in assay [1] (setting [3]) and 111 nM in assay [2] (setting [4]).
Consider `COc1ccc(-n2nccn2)c(C(=O)N2C[C@H](c3nc4cc(Cl)ccc4o3)CC[C@H]2C)c1` [Example 25, [(2R,5R)-5-(5-Chloro-1,3-benzoxazol-2-yl)-2-methylpiperidin-1-yl][5-methoxy-2-(2H-1,2,3-triazol-2-yl)phenyl]methanone], for which the IC50 in assay [1] (setting [3]) was 66 nM; in assay [2] (setting [4]) it was 387 nM.
As to `Cc1ccc(-n2nccn2)c(C(=O)N2C[C@H](c3nc4c(F)cc(F)cc4o3)CC[C@H]2C)c1` [Example 60, [(2R,5R)-5-(4,6-Difluoro-1,3-benzoxazol-2-yl)-2-methylpiperidin-1-yl][5-methyl-2-(2H-1,2,3-triazol-2-yl)phenyl]methanone], the IC50 was 45.7 nM in assay [1] (setting [3]) and 93.3 nM in assay [2] (setting [4]).
